Laboratory results taken from patent US11464782B2, “Method of treating pain or interstitial cystitis using indole compound” (Japan Tobacco Inc., priority 2018, dated 2022).

Key:
[1] = test system: subjects with active rheumatoid arthritis; assay: Adverse events in rheumatoid arthritis human clinical trial; format: in vivo
Protocol: (§1) Compound A was evaluated in a multicenter, randomized, double-blind, placebo-controlled, parallel-group study in subjects with active rheumatoid arthritis. Subjects were randomized to receive orally placebo or an amount of monohydrochloride Compound A sufficient to provide 50 mg, 100 mg, 150 mg, or 200 mg of free form, once daily for 12 weeks.
The incidence of serious adverse events (SAEs) and severe treatment-emergent adverse events (TEAEs) in the clinical study was low (3.4% and 2.9%, respectively) in subjects who received treatment with one of the doses of Compound A in the clinical study.

[2] = test system: CYP-induced cystitis model mice; assay: Mouse cyclophosphamide (CYP)-induced cystitis model, lower abdominal licking time; format: in vivo; conditions: 3, 6 or 10 mg/mL solutions at 10 mL/kg oral once per day Days 7-9
Protocol: The inhibitory effect of Compound A on lower abdominal licking time was evaluated in a mouse CYP-induced cystitis model. The evaluation was performed according to M. Fujita et al., Eur J Pain. 20 (2016) 79-91. Male C57BL/6J mice (Charles River Laboratories Japan, Inc.) were used as the experimental animals.
Once per day for four days (Days 1-4) 20 mg/mL of CYP (Sigma) dissolved in saline solution was intraperitoneally administered to a vehicle group, a Compound A administration group, and an anti-NGF antibody group at a volume of 10 mL/kg, and saline solution was intraperitoneally administered to a sham group at a volume of 10 mL/kg. A monohydrochloride of Compound A was dissolved in 0.5% methyl cellulose (MC) to prepare 3 mg/mL, 6 mg/mL, and 10 mg/mL solutions of Compound A. […]
The behavior of the mice was recorded for 90 minutes using a video camera prior to the initial administration of CYP (Pre) and on Day 7, Day 8, and Day 10, and the lower abdominal licking time (seconds) was measured. […] The mean values of the licking times of the individual animals were calculated for each group, and the results are shown in FIG. 11.

[3] = test system: subjects with active rheumatoid arthritis; assay: Pain evaluation in rheumatoid arthritis human clinical trial (pain NRS); format: in vivo
Protocol: as §1
Pain was evaluated using a Numerical Rating Scale (NRS) by subjects. The pain NRS represents the severity of their arthritis pain during the past 3 days using an 11-point scale from 0 (no pain) to 10 (maximum pain). An evaluation was made of how much NRS decreased from baseline NRS after drug administration.
Data from EOT (end of treatment), at 2 weeks, and at 12 weeks was obtained. EOT is a measurement point generally used in clinical studies. In a 12-week study, it refers to all analysis at the 12-week time point. However, since some subjects will have discontinued the study midway, the data at the time of discontinuation is treated as the EOT for these subjects (for example, data for week 8 is used as EOT for subjects who discontinued in week 8). 2-week (subjects who completed 2 weeks in full) and 12-week (subjects who completed 12 weeks in full) data are also presented.
Change in pain NRS was evaluated in two subgroups of patients, those with higher baseline pain levels (median baseline pain NRS≥8.0) and those with lower baseline pain levels (median baseline pain NRS<8.0). […] Although the magnitude of decrease in pain NRS was different between lower and higher baseline pain NRS subgroups, both subgroups ultimately achieved a pain NRS score of approximately 4.

[4] = test system: NGF-induced mechanical hyperalgesia; assay: NGF-induced mechanical hyperalgesia in rats (pressure analgesy-meter, paw withdrawal threshold); format: in vivo, rat
Protocol: In order to induce a pain-related behavior (withdrawal behavior), NGF was injected into the plantar area of the left hind paw of rats and the thermal latencies/mechanical thresholds were measured. The effects of Compound A on these withdrawal behaviors were investigated. At 2 days before the injection of NGF, the thermal latencies or mechanical thresholds were measured for acclimation to the experimental environment. On the day before injection of NGF, body weights and values of the thermal latencies or mechanical thresholds were obtained. 50 μL of NGF solution was injected intraplantar to left hind paw of rats. 0.5 μg/site of NGF was selected in the evaluation of thermal stimuli and 1 μg/site was selected in that of mechanical stimuli. A monohydrochloride of Compound A (1, 3, or 10 mg/kg) was administered orally at the same time as the NGF injection. The latencies to thermal stimuli were measured at 3 and 6 hours after injection of NGF solution, and the thresholds to mechanical stimuli were measured at 1, 3 and 6 hours after injection of NGF solution. The evaluation was performed as a blind test of each group. The mechanical threshold was measured using a pressure analgesy-meter. A mechanical stimulus (pressure) increased at a constant rate was added to the hind paw, and the pressure under load until animals withdrew its hind paw or vocalization was recorded as the mechanical threshold (mmHg).

[5] = subjects who received one of the doses (50-200 mg once daily, 12 weeks)
[6] = rheumatoid arthritis subjects, 50-200 mg oral once daily

C[C@@H](C(=O)N(C)c1ccc2cc(-c3n[nH]c4c3CCC(C)(C)C4)[nH]c2c1)N1CCOCC1 [Compound A, N-[2-(6,6-dimethyl-4,5,6,7-tetrahydro-1H-indazol-3-yl)-1H-indol-6-yl]-N-methyl-(2S)-2-(morpholin-4-yl)propanamide]
safety and tolerability ([1]; doses up to 200 mg over 12 weeks of treatment): safe and tolerated | incidence of serious adverse events (SAEs) [1, 5]: 3.4% | incidence of severe treatment-emergent adverse events (TEAEs) [1, 5]: 2.9% | lower abdominal licking time [2]: reduced lower abdominal licking time | pain NRS score ultimately achieved ([3]; both lower (<8.0) and higher (≥8.0) baseline pain NRS subgroups, 50-200 mg oral once daily for 12 weeks): approximately 4 | duration of anti-pain effects (long-lasting) [3, 6]: 12 weeks | time to anti-pain effects (rapid) [3, 6]: ≤ 2 weeks | pain in subjects having severe pain ([3]; subjects having pain greater than or equal to 8 on the NRS scale): reduce pain | decrease in pain NRS by baseline pain subgroup ([3]; subjects with higher baseline pain levels (NRS≥8.0) versus lower (NRS<8.0)): Larger decreases in pain NRS were observed in subjects that began treatment with higher baseline pain levels | dose from which significant effects were observed (mechanical threshold) ([4]; at 6 hours after NGF injection, oral): ≥ 3 mg/kg | effect on the decrease in the mechanical thresholds induced by NGF ([4]; compared with the vehicle, 1, 3, 10 mg/kg oral, dose related): prevented the decrease in the mechanical thresholds induced by NGF
